{"source": "patent US20150164762A1", "about": "“USE OF ETHANOLAMINE PHOSPHATE” (priority 2012, published 2015)", "key": {"BEAS-2B [1]": {"system": "BEAS-2B", "experiment": "Proliferation test with GABA receptor agonists and GABA-A antagonist (WST-8)", "assay_type": "cell-based, human", "conditions": "0.1% FBS, 72 hours", "protocol": "[…] […] Next, 10 μl per well of GABA (GABA-A and GABA-B receptor agonist) and homotaurine (GABA-A agonist) were added. A proliferation test (WST-8 assay) was performed after 72 hours.\n[…] […] 10 μl per well of EP solution was added. A proliferation test (WST-8 assay) was performed after 72 hours."}, "BEAS-2B [2]": {"system": "BEAS-2B", "experiment": "Proliferative effects of EP and its metabolic derivatives (WST-8)", "assay_type": "cell-based, human"}, "BEAS-2B [3]": {"system": "BEAS-2B", "experiment": "Permeability test, 4-kilodalton fluorescent dextran through BEAS-2B cell sheet (Papp)", "assay_type": "cell-based, human", "conditions": "Dex 1 μM, with or without EP 1 mM", "protocol": "Cells of the established normal human airway epithelial cell line BEAS-2B were seeded to 1×10^5 cells/cm^2 on a cell culture insert (353104, BD Falcon) (FIG. 14). 10% FBS RPMI-1640 was used as the medium. The amount of medium was 200 μl on the insert side and 750 μl on the well side. Beginning the next day, substitution/medium replacement was performed once a day with 1% FBS RPMI-1640 prepared with the following 4 reagent conditions, and transepithelial electrical resistance (TER) was measured with MilliCell (Millipore). • Condition 1: Control • Condition 2: EP 1 mM • Condition 3: Dexamethasone 1 μM (dexamethasone (Dex): positive control substance known to enhance barrier function) • Condition 4: EP 1 mM and Dex 1 μM\n7 days after cell seeding a permeability test was performed as follows.\nA 4-kilodalton fluorescent dextran molecule (Sigma) was added to the cell culture insert to a concentration of 0.1 mg/ml, 20 μl of the medium on the well side was removed after 1 hour, and the amount of permeating fluorescent dextran was estimated from the fluorescent strength at each concentration. The permeation rate Papp of a substance from the insert side to the well side is normally determined by the following formula.\nPapp=(volume of medium on well side/insert area×initial insert concentration)×(altered concentration on well side/elapsed time)"}, "BEAS-2B [4]": {"system": "BEAS-2B", "experiment": "Cell toxicity of H2O2 after EP pre-treatment (WST-8 assay)", "assay_type": "cell-based, human", "conditions": "Homo sapiens, BEAS-2B, read-out: EC50 (50% cell death concentration of H2O2)", "protocol": "Cells of the normal airway epithelial cell line BEAS-2B were seeded at a density of 1×10^5/cm^2 on a 96-well plate, and after 24 hours the medium was replaced with 0.5% FBS RPMI 1640 containing EP at final concentrations of 0, 250 and 500 μM. 24 hours after medium replacement the medium was replaced with 0.5% FBS RPMI-1640, and serially diluted H2O2 was administered (n=4). 24 hours after H2O2 administration a cell toxicity test WST-8 assay (Cell Counting Kit-8, Dojindo) was performed. For the data analysis, the 50% cell death concentration EC50 was calculated with GraphPad Prism 5 statistical analysis software."}, "BEAS-2B [5]": {"system": "BEAS-2B", "experiment": "DNA microarray of H2O2-treated samples and correlational analysis with EP", "assay_type": "cell-based, human", "conditions": "H2O2 125 μM, 6 hours", "protocol": "The data of Example 13 were used as the EP gene expression data. Cell preparation and H2O2 administration were performed as in Test 13. Samples that had been treated for 6 hours with H2O2 at a final concentration of 125 μM were used as samples for gene expression analysis by DNA microarray."}, "HHDPC cells": {"system": "HHDPC cells", "experiment": "WST-8 proliferation test, primary normal human hair dermal papilla cells (HHDPC)", "conditions": "high concentrations", "protocol": "HHDPC cells (Cosmo Bio) were seeded to 1×10^4 cells/cm^2 on a 96-well plate. Complete MSCM medium (500, ScienCell) was used as the medium. After 24 hours, the cells were washed gently with 200 μl per well of PBS, the medium was replaced with 90 μl per well of 0% FBS DMEM with 1 vol % of complete MSCM medium added thereto, and the cells were cultured for 24 hours. After culture, 10 μl per well of EP solution was added, and a proliferation test (WST-8 assay) was performed 6 days after EP administration. The WST-8 assay was performed as in Example 1. The same test was performed using minoxidil, which has a clinical hair growth effect."}}, "note": "Like-named read-outs stand apart in the source and are kept apart here.", "data": [{"smiles": "C[N+]1(C)CCc2cc3c(cc2[C@H]1[C@@H]1OC(=O)c2c1ccc1c2OCO1)OCO3.[Cl-]", "note": "[BM, (−)-Bicuculline Methochloride]", "values": [{"measurement": "inhibition of the proliferative action of EP", "setting": "BEAS-2B [1]", "value": "not inhibited"}]}, {"smiles": "OCCNCCO", "note": "[diethanolamine]", "values": [{"measurement": "animal cell proliferation without serum or growth factors", "setting": "BEAS-2B [2]", "value": "not obtained"}]}, {"smiles": "NCCCC(=O)O", "note": "[GABA]", "values": [{"measurement": "proliferative action", "setting": "BEAS-2B [1]", "value": "neither the GABA-A and GABA-B receptor agonist GABA nor the EP structural analog and GABA-A receptor agonist homotaurine exhibited any statistically significant proliferative action"}]}, {"smiles": "C[C@@H]1C[C@H]2[C@@H]3CCC4=CC(=O)C=C[C@]4(C)[C@@]3(F)[C@@H](O)C[C@]2(C)[C@@]1(O)C(=O)CO", "note": "[dexamethasone, reference compound]", "values": [{"measurement": "drop in Papp", "setting": "BEAS-2B [3]", "value": "no rise in TER or drop in Papp"}]}, {"smiles": "NCCCS(=O)(=O)O", "note": "[homotaurine]", "values": [{"measurement": "proliferative action", "setting": "BEAS-2B [1]", "value": "neither the GABA-A and GABA-B receptor agonist GABA nor the EP structural analog and GABA-A receptor agonist homotaurine exhibited any statistically significant proliferative action"}]}, {"smiles": "OO", "note": "[H2O2, hydrogen peroxide, reference compound]", "values": [{"measurement": "EC50", "setting": "BEAS-2B [4]; cells pre-treated with 250 uM EP", "value": 190, "unit": "µM"}, {"measurement": "EC50", "setting": "BEAS-2B [4]; cells pre-treated with 500 uM EP", "value": 177, "unit": "µM"}, {"measurement": "EC50", "setting": "BEAS-2B [4]; control, no EP pre-treatment, 24 h", "value": 128, "unit": "µM"}, {"measurement": "expression of apoptosis-associated genes reduced by EP (30 probes)", "setting": "BEAS-2B [5]", "value": "generally had their expression increased"}, {"measurement": "expression of cytokines and chemokines", "setting": "BEAS-2B [5]", "value": "induced expression of cytokines and chemokines"}]}, {"smiles": "NCCO", "note": "[ethanolamine]", "values": [{"measurement": "animal cell proliferation without serum or growth factors", "setting": "BEAS-2B [2]", "value": "not obtained"}, {"measurement": "proliferative action", "setting": "BEAS-2B [2]; 0.1% FBS, 72 hours", "value": "much weaker than that of EP"}]}, {"smiles": "C[N+](C)(C)CCOP(=O)(O)O", "note": "[phosphorylcholine]", "values": [{"measurement": "animal cell proliferation without serum or growth factors", "setting": "BEAS-2B [2]", "value": "not obtained"}]}, {"smiles": "Nc1cc(N2CCCCC2)nc(N)[n+]1[O-]", "note": "[Minoxidil, minoxidil, reference compound]", "values": [{"measurement": "cell toxicity", "setting": "HHDPC cells", "value": "toxic above that range"}]}, {"smiles": "C[N+](C)(C)CCOP(=O)(O)OP(=O)([O-])OC[C@H]1O[C@@H](n2ccc(N)nc2=O)[C@H](O)[C@@H]1O", "note": "[CDP-choline]", "values": [{"measurement": "animal cell proliferation without serum or growth factors", "setting": "BEAS-2B [2]", "value": "not obtained"}]}]}
